Measurements: patent US11400093B2, “Deuterated elagolix-like compositions and methods” (Lupin Inc., priority 2019, dated 2022)

Assays:
Format in all cases: in vitro ADME
[1] = tested on: cDNA-expressed CYP1A2, CYP2A6, CYP2B6, CYP2C8, CYP2C9, CYP2C19, CYP2D6, CYP2E1, CYP3A4, and CYP3A5; assay: Metabolism by cDNA-expressed human CYP enzymes, all isoforms (parent remaining); conditions: for average percent of parent compound remaining for all isoforms and concentrations: 1.0 μM and 10 μM, 120 minutes incubation, all ten CYP isoforms
Description: (§1) A study was conducted to determine the effect of deuteration on the metabolism of elagolix by human cytochrome P450 (CYP) enzymes. The metabolism of 4-[[(1R)-2-[5-(2-fluoro-3-methoxyphenyl)-3-[[2-fluoro-6(trifluoromethyl)phenyl]methyl]-3,6-dihydro-4-methyl-2,6-dioxo-1(2H)-pyrimidinyl]-1-phenylethyl]amino] butanoic acid-d3 (elagolix-d3) sodium salt and 4-[[(1R)-2-[5-(2-fluoro-3-methoxyphenyl)-3-[[2-fluoro-6(trifluoromethyl)phenyl] methyl]-3,6-dihydro-4-methyl-2,6-dioxo-1(2H)-pyrimidinyl]-1-phenylethyl]amino] butanoic acid-d6 (elagolix-d6) sodium salt by cDNA-expressed CYP enzymes were investigated in vitro and compared to results obtained with undeuterated elagolix to determine which human cytochrome P450 (CYP) enzymes are involved in the metabolism of elagolix, elagolix-d3, and elagolix-d6.
Commercially available cDNA-expressed human CYP enzymes were used for this study.
A 600 μL reaction mixture containing enzyme protein, NADPH generating system (1.3 mM NADP+, 3.3 mM glucose-6-phosphate, 0.4 U/mL glucose-6-phosphate dehydrogenase, 3.3 mM magnesium chloride) and each test article (elagolix, elagolix-d3, elagolix-d6) at two concentrations (e.g. 1 μM and 10 μM) in 100 mM potassium phosphate (pH 7.4) was incubated at 37° C. At two time points (0 and 120 min), the reaction was stopped by removing an aliquot and combining it with an equal volume of cold acetonitrile containing an internal standard (deuterated elagolix was used as the internal standard for elagolix, and elagolix was used as the internal standard for elagolix-d3 and -d6) and placed on ice. Samples were centrifuged to pellet the protein and the supernatant was frozen at −20° C. for subsequent analysis by LC-MS/MS.
Protein concentrations were constant for all isoforms within each experiment and standardized by the addition of control microsomes. Incubations were performed in duplicate. Incubations with vector control enzyme preparations and without enzyme source were included as negative controls.
All other positive controls were assayed at one concentration in duplicate in accordance with the methods described above. The percent of parent remaining at the end of the incubation was compared to 0 min based on the peak area ratio of the substrate and internal standard.
LC-MS/MS methods for elagolix, elagolix-d3, and elagolix-d6 were developed. The fraction of parent compound remaining compared to 0 min was determined based on peak area ratio (analyte/internal standard).
Elagolix, elagolix-d3, and elagolix-d6 at 1.0 μM and 10 μM were each incubated in the presence of cDNA-expressed CYP1A2, CYP2A6, CYP2B6, CYP2C8, CYP2C9, CYP2C19, CYP2D6, CYP2E1, CYP3A4, and CYP3A5 for 120 minutes. The average percent of parent compound remaining for all isoforms and concentrations was >11% for elagolix, >60% for elagolix-d3, and >26% for elagolix-d6.

cDNA-expressed CYP2D6 = target: T1, cDNA-expressed CYP2D6 (Homo sapiens, UniProt P10635); assay: Metabolism by cDNA-expressed CYP2D6 (parent remaining); conditions: 1 μM, 120 min
T1 construct: purchased
Description: as §1
(§2) Commercially available cDNA-expressed human CYP enzymes were used for this study. […]
(§3) LC-MS/MS methods for elagolix, elagolix-d3, and elagolix-d6 were developed. The fraction of parent compound remaining compared to 0 min was determined based on peak area ratio (analyte/internal standard). […]

cDNA-expressed CYP3A5 = target: T2, cDNA-expressed CYP3A5 (Homo sapiens, UniProt P20815); assay: Metabolism by cDNA-expressed CYP3A5 (parent remaining); conditions: 1 μM, 120 min
T2 construct: purchased
Description: as §1, §2, §3

T1 sequence (P10635 whole entry): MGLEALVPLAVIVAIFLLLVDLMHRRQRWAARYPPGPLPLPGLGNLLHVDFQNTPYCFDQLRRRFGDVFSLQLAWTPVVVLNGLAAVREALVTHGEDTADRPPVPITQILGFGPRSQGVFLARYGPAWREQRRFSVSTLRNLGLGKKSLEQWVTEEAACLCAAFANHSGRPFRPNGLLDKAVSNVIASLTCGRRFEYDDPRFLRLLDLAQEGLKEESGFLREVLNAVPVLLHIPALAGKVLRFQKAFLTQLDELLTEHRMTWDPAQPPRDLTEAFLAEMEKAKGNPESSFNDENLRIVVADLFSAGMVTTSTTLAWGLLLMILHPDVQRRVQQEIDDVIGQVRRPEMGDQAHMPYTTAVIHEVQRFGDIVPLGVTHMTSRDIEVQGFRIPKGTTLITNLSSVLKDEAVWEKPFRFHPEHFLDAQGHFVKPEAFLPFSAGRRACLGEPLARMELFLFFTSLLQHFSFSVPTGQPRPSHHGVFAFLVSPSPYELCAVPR
T2 sequence (P20815 whole entry): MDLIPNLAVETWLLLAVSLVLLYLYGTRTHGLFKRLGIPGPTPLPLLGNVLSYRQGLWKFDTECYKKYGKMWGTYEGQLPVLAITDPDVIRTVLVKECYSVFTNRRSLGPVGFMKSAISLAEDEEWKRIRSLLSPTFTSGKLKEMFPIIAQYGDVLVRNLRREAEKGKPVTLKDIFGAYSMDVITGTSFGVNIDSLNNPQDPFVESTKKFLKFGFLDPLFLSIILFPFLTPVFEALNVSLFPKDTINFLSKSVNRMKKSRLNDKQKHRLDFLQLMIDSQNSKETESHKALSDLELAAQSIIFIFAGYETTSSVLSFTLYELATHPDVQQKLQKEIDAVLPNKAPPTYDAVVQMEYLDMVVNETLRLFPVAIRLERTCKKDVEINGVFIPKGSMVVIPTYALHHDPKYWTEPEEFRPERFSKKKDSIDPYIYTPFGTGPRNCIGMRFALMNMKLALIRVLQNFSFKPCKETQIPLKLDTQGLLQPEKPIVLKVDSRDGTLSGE

| Structure (SMILES) | average percent of parent compound remaining for all isoforms and concentrations [1] | percent parent remaining, cDNA-expressed CYP2D6 (cDNA-expressed CYP2D6) | percent parent remaining, cDNA-expressed CYP3A5 (cDNA-expressed CYP3A5) | average amount of parent compound in a CYP enzyme assay after 120 minutes relative to that of elagolix [1] | depletion by cDNA-expressed CYP2D6 (cDNA-expressed CYP2D6) |
| --- | --- | --- | --- | --- | --- |
| COc1cccc(-c2c(C)n(Cc3c(F)cccc3C(F)(F)F)c(=O)n(C[C@H](NCCCC(=O)O)c3ccccc3)c2=O)c1F [elagolix, 4-({(1R)-2-[5-(2-fluoro-3methoxyphenyl)-3-{[2-fluoro-6-(trifluoromethyl)phenyl]methyl}-4-methyl-2,6-dioxo-3,6dihydropyrimidin-1(2H)-yl]-1-phenylethyl}amino)butanoate] | > 11% | 62% | 11% |  |  |
| [2H]C([2H])([2H])Oc1cccc(-c2c(C)n(Cc3c(F)cccc3C(F)(F)F)c(=O)n(C[C@H](NCCCC(=O)O)c3ccccc3)c2=O)c1F [elagolix-d3, 4-[[(1R)-2-[5-(2-fluoro-3-methoxyphenyl)-3-[[2-fluoro-6(trifluoromethyl)phenyl]methyl]-3,6-dihydro-4-methyl-2,6-dioxo-1(2H)-pyrimidinyl]-1-phenylethyl]amino] butanoic acid-d3] | > 60% |  | 60% | more than 400% | did not demonstrate any depletion |
| [2H]C([2H])(N[C@@H](Cn1c(=O)c(-c2cccc(OC)c2F)c(C)n(Cc2c(F)cccc2C(F)(F)F)c1=O)c1ccccc1)C([2H])([2H])C([2H])([2H])C(=O)O [elagolix-d6, 4-[[(1R)-2-[5-(2-fluoro-3-methoxyphenyl)-3-[[2-fluoro-6(trifluoromethyl)phenyl]methyl]-3,6-dihydro-4-methyl-2,6-dioxo-1(2H)-pyrimidinyl]-1-phenylethyl]amino] butanoic acid-d6] | > 26% |  |  | 136% |  |
